Reference: patent EP0170024A2, “Use of 2-acylaminomethyl-1,4-benzodiazepine derivatives for the production of pharmaceutical compositions and process for the preparation for pharmaceutical compositions” (priority 1984, dated 1986)
Like-named read-outs stand apart in the source and are kept apart here.

Legend:
[1] = test system: CCK-8 response in guinea pig gall bladder; assay: Isolated guinea pig gall bladder, CCK-8 contractile response; details: compound at 2 uM, added at least 5 minutes before CCK-8
Protocol: Isolated guinea pig gall bladder method
The two halves of the gall bladders, free of adjacent tissue, of male Hartley guinea pigs (400-600 q), which had been sacrificed by ? were suspended under 1 g tension along the axis of the bile duct in 5 ml organ bath, containing a Kreb's bicarbonate solution of 118 mM NaCl, 4.75 mM KC1, 2.54 CaCl2, 1.19 mM KH2PO4, 1.2 mM MgS04, 25 mM NaHC03 and 11 mM dextrose, which is maintained at 32°C and bubbled with a mixture of 95% 02 and 5% C02. The tissues were washed every 10 minutes for 1 hour to obtain equilibrium prior to the beginning of the study and the isometric contractions of the strips were recorded using Statham (60 g:0.12 mm) strain gauges and a Hewlett-Packard 77588 recorder.
CCK-8 was added cumulatively to the baths and the EC50's were determined using regression analysis. After washout (every 10 minutes-for 1 hour), the compound to be tested was added at least 5 minutes before the addition of CCK-8 and the EC50 of CCK-8 in the presence of the compound to be tested was also simillarly determined.

CCK receptor (pancreas) = molecular target: T1, CCK receptor (pancreas) (Rattus norvegicus, UniProt P30551); assay: CCK receptor binding (pancreas), 125I-CCK-33 receptor binding assay; details: for IC50: inhibition of 50% of the 125I-CCK binding, rat pancreas membranes, 37°C, 30 minutes
T1 construct: The whole pancreas of a male Sprague-Dawley rat (200-350 g), which had been sacrificed by decapitation, was dissected free of fat tissue and homogenized; from tissue; host or cells: rat pancreas membrane homogenate
T1 sequence (P30551 1-444): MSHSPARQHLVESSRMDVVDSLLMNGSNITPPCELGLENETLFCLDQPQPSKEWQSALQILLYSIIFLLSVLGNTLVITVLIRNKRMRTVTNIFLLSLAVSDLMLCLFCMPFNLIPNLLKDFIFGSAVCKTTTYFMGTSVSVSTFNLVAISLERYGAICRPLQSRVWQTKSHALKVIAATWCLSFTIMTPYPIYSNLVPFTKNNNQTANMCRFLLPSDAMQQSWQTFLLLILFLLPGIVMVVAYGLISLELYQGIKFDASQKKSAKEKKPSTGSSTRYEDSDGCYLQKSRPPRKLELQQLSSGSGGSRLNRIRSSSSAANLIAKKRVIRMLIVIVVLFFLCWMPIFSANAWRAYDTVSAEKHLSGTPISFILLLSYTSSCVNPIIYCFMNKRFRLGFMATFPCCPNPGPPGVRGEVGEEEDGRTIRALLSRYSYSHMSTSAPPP
From the text: Screening of these known compounds to determine biological activity and obtain an IC50 value for them to identify significant CCK-antagonism may be accomplished using an 125I-CCK receptor binding assay and in vitro isolated tissue preparations. These tests involve the following: • CCK receptor binding (pancreas) method
CCK-33 was radiolabeled with ^125I-Bolton Hunter reagent (2000 Ci/mmole), as described by Sankara et al. (J. Biol. Chem., 254, 9349-9351, 1979).
The whole pancreas of a male Sprague-Dawley rat (200-350 g), which had been sacrificed by decapitation, was dissected free of fat tissue and homogenized in 20 volumes of ice-cold 50 mM Tris HC1 (pH 7.7 at 25°C) with a Brinkmann Polytron PT-10. The homogenates were centrifuged at 48,000g for 10 minutes, then the resulting pellets were resuspended in Tris Buffer, centrifuged as above, and resuspended in 200 volumes of binding assay buffer (50 mM Tris HC1, pH 7.7 at 25°C, 5 mM dithiothreitol, 0.1 mM bacitracin, 1.2 mM phenylmethane sulfonyl fluoride and 0.5 mM o-phenanthroline).
All assays were run in duplicate or triplicate, and the reaction mixtures were incubated at 37°C for 30 minutes and centrifuged in a Beckman Microfuge (4 minutes) immediately after adding 1 ml of ice-cold incubation buffer. The supernatant was aspirated and discarded, and the pellets were counted with a Beckman gamma 5000.

[2] = read-out: IC50 (µM) CCK Pancreas

In the case of `CN1c2ccccc2C(c2ccccc2F)=NCC1CNC(=O)c1ccsc1` (racemic) [Compound 2, (±)-1-methyl-2-(thiophene-3-carbonyl) aminomethyl-5-(2'-fluorophenyl)-2,3-dihydro-l,4-benzodiazepine], the “effect on CCK dose response curve” value [1] was “parallel shift to the right of the CCK dose response curve without reduction of the maximal contractile response”, the IC50 (CCK receptor (pancreas); IC50 (µM) CCK Pancreas) was 0.2 µM and the “mechanism of inhibition of specific 125I-CCK-33 receptor binding (Scatchard analysis)” value (CCK receptor (pancreas); absence and presence of 0.2 µM of compound, increased the KD without affecting the Bmax) was “competitively inhibited specific ^125I-CCK-33 receptor binding”.
Work on `CN1c2ccccc2C(c2ccccc2F)=NCC1CNC(=O)c1ccsc1` (single isomer, unassigned; (+)) [Compound 6, (+)-1-methyl-2-(thiophene-3-carbonyl)aminomethyl-5-(2-fluorophenyl)-lH-2,3-dihydro-1,4-benzodiazepine] yielded an IC50 (CCK receptor (pancreas); IC50 (µM) CCK Pancreas) of 13.9 µM.
`CN1c2ccccc2C(c2ccccc2F)=NCC1CNC(=O)c1ccsc1` (single isomer, unassigned; (-)) [Compound 1, (-)-1-methyl-2-(thiophene-3-carbonyl)aminomethyl-5-(2'-fluorophenyl)-1H-2,3-dihydro-1,4-benzodiazepine] gave an IC50 (CCK receptor (pancreas); IC50 (µM) CCK Pancreas) of 0.1 µM.
In the case of `CN1c2ccccc2C(c2ccccc2F)=NCC1CNC(=O)c1ccc(Cl)cc1` (stereo not drawn) [Compound 3, l-methyl-2-(4'-chlorophenylcarbonyl) aminomethyl-5-(2'-fluorophenyl)-3H-2,3-dihydro-1,4-benzodiazepine], the IC50 (CCK receptor (pancreas); [2]) was 0.8 µM.
`CN1c2ccccc2C(c2ccccc2F)=NCC1CNC(=O)c1ccccc1F` (stereo not drawn) [Compound 4, l-methyl-2-(2-fluorophenyl-carbonyl)aminomethyl-5-(2'-fluorophenyl)-lH-2,3-dihydro-1,4-benzodiazepine] was tested, and the IC50 (CCK receptor (pancreas); [2]) was 2.9 µM.
For `CN1c2ccccc2C(c2ccccc2F)=NCC1CN1C(=O)c2ccccc2C1=O` (stereo not drawn) [Compound 5, [(1-methyl-5-(2'-fluorophenyl)-lH-l,4-benzopin-2-yl)methyl]-lH-isoindole-1,3-(2H)-dione], the IC50 (CCK receptor (pancreas); [2]) was 4.3 µM.
For `CN1c2ccccc2C(c2ccccc2F)=NCC1CNC(=O)c1cccnc1` (stereo not drawn) [Compound 7, 1-methyl-2-(pyridine-3-carbonyl)aminomethyl-5-(2'-fluorophenyl)-1H-2,3-dihydro-1,4-benzodiazepine], the IC50 (CCK receptor (pancreas); [2]) was 10 µM.
